# What was measured:
# lysosomes in A549 cells = assay: Lysosomal acidity gradient by Lysotracker Red / YOYO1 probes; format: cell-based; settings: flow cytometry, 1 h, 3 h, 6 h and 9 h
# Method: a. Preparation of YOYO1 working fluid: the YOYO1 stock solution was diluted with 1640 serum-free medium at the volume ratio of 1:200;
# b. The pMVA-1 plasmid was added to the YOYO1 working fluid prepared in the Step (1) according to a volume ratio of 1:40, and incubated at 37° C. for 1 h.
# a. The YOYO1 fluorescent labeled pMVA-1 plasmid prepared in Step 1 was mixed with the DOTAP cationic lipid to form a complex;
# b. The YOYO1 fluorescently labeled pMVA-1/DOTAP complex prepared in Step a was added to A549 cells, followed by making two control groups i.e. YOYO1 fluorescently labeled pMVA-1 plasmid group (PMVA) and DOTAP cationic lipid group (DOTAP), and blank control group containing cell culture fluid only.
# (1) Preparation of Lysotracher Red working fluid: the Lysotracher Red stock solution was added to the cell culture fluid at a volume ratio of 1:20000 and incubated at 37° C.
# a. The A549 cell culture fluid in Step 1 was removed, the Lysotracker Red staining working fluid prepared in Step (1) was added to the cells, and incubated at 37° C. for 1 h; […]
# c. A549 cells in Step b were collected and the number of fluorescent cells were quantitatively tested by flow cytometry.
# CT26 cells = assay: Mitochondrial membrane potential by TMRM, flow cytometry; format: cell-based, mouse; settings: CT26, 15-24 h
# Method: (1) Inoculation of tumor cells in plates: A549 cells and CT26 cells in the logarithmic growth phase were prepared into a cell suspension respectively, inoculated into a 6-well plate as per 1×10^5 cells/well, 2 ml of medium was added to each well, and cultured overnight in a 5% CO2 incubator at 37° C.
# (2) Different samples added to act on tumor cells: the pMVA-1 plasmid, the DOTAP cationic lipid and the pMVA-1/DOTAP complex were added to the tumor cells cultured in Step (1) respectively, and incubated at 37° C. for 15 h, 18 h, 21 h and 24 h.
# (3) Preparation of TMRM dyeing working fluid (made by Life Technologies): the TMRM mother liquor was diluted with PBS at a ratio of 1:100000 to obtain the TMRM dyeing working fluid. […]
# (5) The tumor cells in Step (4) were collected and treated with different samples for different times, and the tumor cells with mitochondrial membrane potential changes were analyzed by flow cytometry.
# As a potentiometric fluorescence probe, tetramethylrhodamine methyl ester (TMRM) entered the cells and was cleaved by cell lactonase to produce tetramethylrhodamine, indicating strong fluorescence after they had entered mitochondria. […] Therefore, the open state of mitochondrial membrane channel pores can be verified by testing the changes of fluorescence intensity in mitochondria of tumor cells.
# A549 cells = assay: A549 cell death test by flow cytometry; format: cell-based; settings: A549, 24 h, compared with blank control group
# Method: The method was the same as that in 1(1).
# The method was the same as that in 1(2), wherein, the concentration of DOTAP cationic lipid was 4 μg/ml, 8 μg/ml, 16 μg/ml and 32 μg/ml respectively, and the concentration of the pMVA-1/DOTAP complex was expressed by that of DOTAP cationic lipid.
# The method was the same as that in 1(3).
# a. A549 cells treated by different samples in the Step (3) were washed twice with cold PBS, and resuspended with 1× binding buffer for preparing a cell suspension with a density of 1×10^6 cells/ml;
# b. 100 μl of A549 cell suspension prepared in Step a was pipetted into the flow test tube;
# c. 5 μl of FITC Annexin V and 5 μl of PI were added to the flow test tube in Step b, mixed gently, and incubated at room temperature for 15 min in the dark;
# d. 400 μl of 1× binding buffer was added to the flow test tube in Step c and tested by flow cytometry;
smiles,measurement,setting,value
"CCCCCCCC/C=C\CCCCCCCC(=O)OCC(C[N+](C)(C)C)OC(=O)CCCCCCC/C=C\CCCCCCCC (stereo not drawn) [DOTAP, 1,2-dioleoyl-3-trimethylammonium-propane]",Lysotracker Red fluorescence intensity,lysosomes in A549 cells,did not change significantly
same,mitochondrial membrane potential,CT26 cells,did not change significantly
same,"Annexin-V single positive, PI single positive and PI/Annexin-V double positive cells (PI uptake and Annexin-V)",A549 cells,did not increase significantly

# — US11738072B2, “Tumor vaccine and uses thereof” (WestVac Biopharma Co., Ltd., priority 2017, dated 2023)
